Assay results published in patent US20160375006A1, “USES OF PARALOG-SELECTIVE INHIBITORS OF GSK3 KINASES” (priority 2012, published 2016).
Where two headings read alike, the source gives them in different places.

How the values were obtained:
FGFR4(V550L) = FGFR4(V550L) (Homo sapiens, UniProt P22455, V550L)
Description: (§1) This was completed utilizing one of two assays depending on the kinase being examined.
(§2) A solution of IMAP binding reagent (IMAP Screening Express kit; Molecular Devices) (60 μL) was added to each well and incubated for 30 minutes.
(§3) A solution of termination buffer (QuickScout Screening assist MSA; Carna Biosciences) (60 μL) was added to each well. The entire reaction mixture was then applied to a LabChip3000 system (Caliper Life Science) and the product and substrate peptide peaks were separated and quantified.
(§4) The assay utilized was identical to that of the single point inhibitory activity determination (MSA) but run in dose response. […] A solution of termination buffer (QuickScout Screening assist MSA; Carna Biosciences) (60 μL) was added to each well. The entire reaction mixture was then applied to a LabChip3000 system (Caliper Life Science) and the product and substrate peptide peaks were separated and quantified.

NEK1 = NEK1 (Homo sapiens, UniProt Q96PY6)
Description: as §1, §2, §3

MARK4 = MARK4 (Homo sapiens, UniProt Q96L34)
Description: as §1, §2, §3, §4

EGFR(T790M) = EGFR(T790M) (Homo sapiens, UniProt P00533, T790M)
Description: as §1, §2, §3, §4

CDK6/CycD3 = CDK6/CycD3 (Homo sapiens, UniProt Q00534)
Description: as §1, §2, §3, §4

PIM1 = PIM1 (Homo sapiens, UniProt P11309)
Description: as §1, §2, §3

MAP3K3_Cascade = MAP3K3_Cascade (Homo sapiens, UniProt Q99759)
Description: as §1, §3
(§5) The assay utilized was identical to that of the single point inhibitory activity determination (MSA) but run in dose response.

JAK2 = JAK2 (Homo sapiens, UniProt O60674)
Description: as §1, §2, §3, §4

MSK1 = MSK1 (Homo sapiens, UniProt O75582)
Description: as §1, §2, §3

RET(Y791F) = RET(Y791F) (Homo sapiens, UniProt P07949, Y791F)
Description: as §1, §2, §3, §4

KIT(V654A) = KIT(V654A) (Homo sapiens, UniProt P10721, V654A)
Description: as §1, §2, §3, §4

MINK = MINK (Homo sapiens, UniProt Q8N4C8)
Description: as §1, §2, §3, §4

PIK3CA/PIK3R1 = PIK3CA/PIK3R1 (Homo sapiens, UniProt P42336)
Description: as §1, §2, §3, §4

FGFR1 = FGFR1 (Homo sapiens, UniProt P11362)
Description: as §1, §2, §3, §4

MAPKAPK3 = MAPKAPK3 (Homo sapiens, UniProt Q16644)
Description: as §1, §2, §3, §4

KDR = KDR (Homo sapiens, UniProt P35968)
Description: as §1, §2, §3, §4

TXK = TXK (Homo sapiens, UniProt P42681)
Description: as §1, §2, §3, §4

CaMK4 = CaMK4 (Homo sapiens, UniProt Q16566)
Description: as §1, §2, §3, §4

NuaK1 = NuaK1 (Homo sapiens, UniProt O60285)
Description: as §1, §2, §3, §4

IKKβ = IKKβ (Homo sapiens, UniProt O14920)
Description: as §1, §2, §3, §4

RSK3 = biological target: T1, RSK3 (Homo sapiens, UniProt Q15349); assay: Carna kinase panel; type: biochemical
T1 construct: purchased Carna Biosciences
Description: as §1, §2, §3

PKACγ = PKACγ (Homo sapiens, UniProt P22612)
Description: as §1, §2, §3, §4

MAP2K1_Cascade = MAP2K1_Cascade (Homo sapiens, UniProt Q02750)
Description: as §1, §2, §3, §4

MSK2 = MSK2 (Homo sapiens, UniProt O75676)
Description: as §1, §2, §3, §4

DYRK3 = DYRK3 (Homo sapiens, UniProt O43781)
Description: as §1, §2, §3, §4

DDR2 = DDR2 (Homo sapiens, UniProt Q16832)
CaMK1δ = CaMK1δ (Homo sapiens, UniProt Q8IU85)
Description: as §1, §2, §3, §4

TYK2 = TYK2 (Homo sapiens, UniProt P29597)
Description: as §2, §3, §4

CDK5/p25 = CDK5/p25 (Homo sapiens, UniProt Q00535)
Description: as §1, §2, §3, §4

PKCη = PKCη (Homo sapiens, UniProt P24723)
Description: as §1, §2, §3, §4

MELK = biological target: T2, MELK (Homo sapiens, UniProt Q14680); assay: Carna kinase panel; type: biochemical
T2 construct: purchased Carna Biosciences
Description: as §1, §2, §3

BMX = BMX (Homo sapiens, UniProt P51813)
Description: as §1, §2, §3, §4

ROCK2 = ROCK2 (Homo sapiens, UniProt O75116)
Description: as §1, §2, §3

EPHA8 = EPHA8 (Homo sapiens, UniProt P29322)
Description: as §1, §2, §3, §4

MST3 = MST3 (Homo sapiens, UniProt Q9Y6E0)
Description: as §1, §2, §3, §4

CSK = CSK (Homo sapiens, UniProt P41240)
Description: as §1, §2, §3, §4

EPHA5 = EPHA5 (Homo sapiens, UniProt P54756)
Description: as §1, §2, §3, §4

MAP2K5_Cascade = MAP2K5_Cascade (Homo sapiens, UniProt Q13163)
Description: as §2, §3, §4

PKCι = PKCι (Homo sapiens, UniProt P41743)
Excerpt: as §1, §5

CDK6/CycD3, sequence (Q00534 whole entry): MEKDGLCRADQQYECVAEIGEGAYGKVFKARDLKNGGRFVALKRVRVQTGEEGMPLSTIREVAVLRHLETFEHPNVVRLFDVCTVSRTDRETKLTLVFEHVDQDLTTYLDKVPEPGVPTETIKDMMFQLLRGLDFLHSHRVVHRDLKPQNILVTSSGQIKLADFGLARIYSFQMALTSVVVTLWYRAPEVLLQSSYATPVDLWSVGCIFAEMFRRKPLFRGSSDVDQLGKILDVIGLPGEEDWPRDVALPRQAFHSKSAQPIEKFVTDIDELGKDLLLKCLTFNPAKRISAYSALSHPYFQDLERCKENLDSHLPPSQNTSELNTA
CDK6/CycD3, sequence (P30281 whole entry partner): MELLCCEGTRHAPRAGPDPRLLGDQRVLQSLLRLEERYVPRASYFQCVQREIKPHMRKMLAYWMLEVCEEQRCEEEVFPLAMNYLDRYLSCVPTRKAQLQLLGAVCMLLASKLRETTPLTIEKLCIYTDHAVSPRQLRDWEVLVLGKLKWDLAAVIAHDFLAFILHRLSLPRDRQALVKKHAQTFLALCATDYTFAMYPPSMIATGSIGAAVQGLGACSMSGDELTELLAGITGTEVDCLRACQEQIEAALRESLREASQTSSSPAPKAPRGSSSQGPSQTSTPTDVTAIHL
CDK5/p25, sequence (Q00535 whole entry, species assumed): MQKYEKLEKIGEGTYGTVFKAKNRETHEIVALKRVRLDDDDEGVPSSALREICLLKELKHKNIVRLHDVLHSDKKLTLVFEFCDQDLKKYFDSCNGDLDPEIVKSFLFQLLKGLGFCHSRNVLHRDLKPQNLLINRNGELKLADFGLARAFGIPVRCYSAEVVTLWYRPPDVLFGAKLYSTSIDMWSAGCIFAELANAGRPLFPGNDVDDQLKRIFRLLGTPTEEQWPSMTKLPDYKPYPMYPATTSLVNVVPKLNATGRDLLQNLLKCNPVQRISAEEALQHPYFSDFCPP
CDK5/p25, sequence (Q15078 99-307 partner limits assumed, species assumed): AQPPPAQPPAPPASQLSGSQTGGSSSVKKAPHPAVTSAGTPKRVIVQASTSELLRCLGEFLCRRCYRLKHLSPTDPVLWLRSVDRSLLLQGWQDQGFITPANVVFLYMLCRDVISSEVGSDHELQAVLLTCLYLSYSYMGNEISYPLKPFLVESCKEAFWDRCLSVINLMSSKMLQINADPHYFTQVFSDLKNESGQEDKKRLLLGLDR
KDR, sequence (P35968 20-1356): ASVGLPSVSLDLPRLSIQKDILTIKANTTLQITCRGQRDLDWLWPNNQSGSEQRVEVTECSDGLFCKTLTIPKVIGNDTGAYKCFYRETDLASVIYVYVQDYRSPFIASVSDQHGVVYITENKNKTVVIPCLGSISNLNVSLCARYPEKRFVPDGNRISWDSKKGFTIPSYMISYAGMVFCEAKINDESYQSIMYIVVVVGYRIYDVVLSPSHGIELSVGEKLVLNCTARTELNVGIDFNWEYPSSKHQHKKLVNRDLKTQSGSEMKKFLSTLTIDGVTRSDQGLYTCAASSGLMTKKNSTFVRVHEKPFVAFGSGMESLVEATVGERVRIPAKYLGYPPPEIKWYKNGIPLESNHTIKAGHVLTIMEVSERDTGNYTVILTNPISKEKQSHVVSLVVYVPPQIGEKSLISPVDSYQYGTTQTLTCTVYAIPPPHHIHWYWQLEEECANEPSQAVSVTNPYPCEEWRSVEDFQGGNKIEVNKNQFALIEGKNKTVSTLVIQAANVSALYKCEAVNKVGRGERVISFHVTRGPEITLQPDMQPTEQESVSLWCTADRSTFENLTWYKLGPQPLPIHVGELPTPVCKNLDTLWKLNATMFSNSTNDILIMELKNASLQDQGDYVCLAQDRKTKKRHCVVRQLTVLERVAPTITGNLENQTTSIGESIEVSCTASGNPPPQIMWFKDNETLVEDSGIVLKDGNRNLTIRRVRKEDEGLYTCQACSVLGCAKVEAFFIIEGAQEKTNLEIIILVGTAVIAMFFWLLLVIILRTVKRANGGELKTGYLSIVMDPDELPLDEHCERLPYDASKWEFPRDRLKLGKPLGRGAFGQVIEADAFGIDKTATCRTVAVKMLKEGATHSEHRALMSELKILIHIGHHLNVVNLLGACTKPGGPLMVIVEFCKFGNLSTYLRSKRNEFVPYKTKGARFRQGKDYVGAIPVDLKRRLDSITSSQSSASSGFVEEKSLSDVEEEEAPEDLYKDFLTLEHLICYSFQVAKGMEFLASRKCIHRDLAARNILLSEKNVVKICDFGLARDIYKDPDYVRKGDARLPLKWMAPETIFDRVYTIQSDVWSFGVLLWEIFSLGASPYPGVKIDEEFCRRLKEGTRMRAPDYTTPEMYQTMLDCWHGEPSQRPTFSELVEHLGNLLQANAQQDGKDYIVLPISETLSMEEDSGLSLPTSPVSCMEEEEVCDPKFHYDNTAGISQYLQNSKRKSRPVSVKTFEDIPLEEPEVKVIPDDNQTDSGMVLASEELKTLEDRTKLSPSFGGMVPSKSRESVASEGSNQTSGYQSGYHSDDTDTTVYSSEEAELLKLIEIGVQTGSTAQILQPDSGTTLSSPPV
T2 sequence (Q14680 whole entry): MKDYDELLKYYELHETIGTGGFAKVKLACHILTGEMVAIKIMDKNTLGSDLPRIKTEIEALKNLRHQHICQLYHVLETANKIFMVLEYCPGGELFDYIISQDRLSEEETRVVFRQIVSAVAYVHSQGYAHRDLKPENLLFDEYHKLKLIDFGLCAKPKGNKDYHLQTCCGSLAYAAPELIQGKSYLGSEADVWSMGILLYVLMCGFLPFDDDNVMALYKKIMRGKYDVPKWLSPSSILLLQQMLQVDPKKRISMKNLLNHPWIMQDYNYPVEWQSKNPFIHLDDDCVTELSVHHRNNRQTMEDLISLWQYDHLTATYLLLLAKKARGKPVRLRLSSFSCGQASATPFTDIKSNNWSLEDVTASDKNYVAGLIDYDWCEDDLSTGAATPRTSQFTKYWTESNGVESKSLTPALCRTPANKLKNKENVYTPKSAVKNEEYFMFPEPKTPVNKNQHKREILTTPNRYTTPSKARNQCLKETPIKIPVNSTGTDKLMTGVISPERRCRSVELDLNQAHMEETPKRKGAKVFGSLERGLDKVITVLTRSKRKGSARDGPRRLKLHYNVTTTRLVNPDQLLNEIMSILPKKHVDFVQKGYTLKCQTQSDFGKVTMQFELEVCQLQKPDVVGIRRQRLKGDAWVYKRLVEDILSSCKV
MAP2K5_Cascade, sequence (Q13163 whole entry): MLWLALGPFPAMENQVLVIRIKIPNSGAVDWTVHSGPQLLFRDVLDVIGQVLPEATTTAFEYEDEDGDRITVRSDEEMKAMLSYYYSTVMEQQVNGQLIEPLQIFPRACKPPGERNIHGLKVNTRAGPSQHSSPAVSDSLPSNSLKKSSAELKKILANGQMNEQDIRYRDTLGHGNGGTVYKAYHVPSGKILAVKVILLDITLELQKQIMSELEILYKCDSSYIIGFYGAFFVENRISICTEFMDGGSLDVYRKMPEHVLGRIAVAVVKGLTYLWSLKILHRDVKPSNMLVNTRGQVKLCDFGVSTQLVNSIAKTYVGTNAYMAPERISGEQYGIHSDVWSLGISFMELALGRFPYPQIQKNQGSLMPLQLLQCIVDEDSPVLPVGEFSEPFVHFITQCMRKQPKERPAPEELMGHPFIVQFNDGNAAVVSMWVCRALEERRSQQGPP
JAK2, sequence (O60674 whole entry): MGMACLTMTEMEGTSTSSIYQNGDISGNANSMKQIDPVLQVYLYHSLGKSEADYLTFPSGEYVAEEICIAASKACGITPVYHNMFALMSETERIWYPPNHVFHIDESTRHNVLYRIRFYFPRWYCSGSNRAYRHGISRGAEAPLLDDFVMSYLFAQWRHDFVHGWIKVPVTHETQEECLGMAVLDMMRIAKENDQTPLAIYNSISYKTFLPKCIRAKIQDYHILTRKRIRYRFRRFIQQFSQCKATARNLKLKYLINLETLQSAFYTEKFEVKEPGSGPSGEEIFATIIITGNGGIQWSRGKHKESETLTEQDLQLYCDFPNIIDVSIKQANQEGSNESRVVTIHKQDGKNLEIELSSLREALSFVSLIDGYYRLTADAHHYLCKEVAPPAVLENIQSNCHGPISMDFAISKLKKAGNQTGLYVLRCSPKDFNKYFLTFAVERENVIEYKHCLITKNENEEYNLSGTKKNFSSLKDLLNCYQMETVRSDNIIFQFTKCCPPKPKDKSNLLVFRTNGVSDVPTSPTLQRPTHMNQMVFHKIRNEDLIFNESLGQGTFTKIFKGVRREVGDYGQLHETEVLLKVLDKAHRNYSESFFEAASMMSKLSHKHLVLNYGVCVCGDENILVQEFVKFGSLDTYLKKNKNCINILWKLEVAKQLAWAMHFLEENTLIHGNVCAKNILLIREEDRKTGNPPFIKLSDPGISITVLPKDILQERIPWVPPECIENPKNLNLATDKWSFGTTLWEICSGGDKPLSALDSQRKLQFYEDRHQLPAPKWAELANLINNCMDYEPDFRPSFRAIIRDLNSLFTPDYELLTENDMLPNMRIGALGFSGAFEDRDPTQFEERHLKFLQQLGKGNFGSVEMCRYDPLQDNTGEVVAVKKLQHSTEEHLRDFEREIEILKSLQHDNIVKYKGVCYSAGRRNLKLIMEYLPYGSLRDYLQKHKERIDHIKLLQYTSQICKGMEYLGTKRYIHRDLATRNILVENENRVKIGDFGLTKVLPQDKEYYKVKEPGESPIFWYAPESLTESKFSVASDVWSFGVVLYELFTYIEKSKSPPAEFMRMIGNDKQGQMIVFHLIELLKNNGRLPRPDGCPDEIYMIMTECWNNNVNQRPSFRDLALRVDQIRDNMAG
PIM1, sequence (P11309 whole entry): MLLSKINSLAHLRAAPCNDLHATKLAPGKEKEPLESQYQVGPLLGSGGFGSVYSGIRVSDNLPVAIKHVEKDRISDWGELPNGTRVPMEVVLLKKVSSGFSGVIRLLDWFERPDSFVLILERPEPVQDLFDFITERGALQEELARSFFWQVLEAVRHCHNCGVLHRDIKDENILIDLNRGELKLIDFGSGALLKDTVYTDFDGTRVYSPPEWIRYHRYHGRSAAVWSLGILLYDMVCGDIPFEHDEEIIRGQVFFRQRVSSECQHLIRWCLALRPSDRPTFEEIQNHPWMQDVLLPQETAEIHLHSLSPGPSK
Excerpt for MAP3K4_Cascade: as §1, §5

CC[C@@]1(c2ccccc2)C2=C(CC(C)(C)CC2=O)Nc2n[nH]cc21 [BRD0705]
% Inhibition at 10 μM (FGFR4(V550L)): −0.4% | % Inhibition at 10 μM (NEK1): −9.6% | % Inhibition at 10 μM (MAP3K4_Cascade): 11.6% | % Inhibition at 10 μM (MARK4): 2.0% | % Inhibition at 10 μM (EGFR(T790M)): −4.9% | % Inhibition at 10 μM (CDK6/CycD3; CDK6/CycD3): −0.5% | % Inhibition at 10 μM (PIM1): −3.4% | % Inhibition at 10 μM (MAP3K3_Cascade): 5.6% | % Inhibition at 10 μM (JAK2): −0.5% | % Inhibition at 10 μM (MSK1): −27.1% | % Inhibition at 10 μM (RET(Y791F)): −2.2% | % Inhibition at 10 μM (KIT(V654A)): −1.0% | % Inhibition at 10 μM (MINK): 2.4% | % Inhibition at 10 μM (PIK3CA/PIK3R1): −10.7% | % Inhibition at 10 μM (FGFR1): −2.7% | % Inhibition at 10 μM (MAPKAPK3): −8.3% | % Inhibition at 10 μM (KDR): −4.8% | % Inhibition at 10 μM (TXK): −1.7% | % Inhibition at 10 μM (CaMK4): −7.1% | % Inhibition at 10 μM (NuaK1): −2.0% | % Inhibition at 10 μM (IKKβ): −4.0% | % Inhibition at 10 μM (RSK3): −7.9% | % Inhibition at 10 μM (PKACγ): −3.6% | % Inhibition at 10 μM (MAP2K1_Cascade): 3.0% | % Inhibition at 10 μM (MSK2): −2.5% | % Inhibition at 10 μM (DYRK3): 7.7% | % Inhibition at 10 μM (DDR2): −1.4% | % Inhibition at 10 μM (CaMK1δ): −3.0% | % Inhibition at 10 μM (TYK2): −2.2% | % Inhibition at 10 μM (CDK5/p25; CDK5/p25): 52.0% | IC50 (CDK5/p25; read-out: IC50 CDK5/p25): 9.2 µM | % Inhibition at 10 μM (PKCη): −4.0% | % Inhibition at 10 μM (MELK): −5.6% | % Inhibition at 10 μM (BMX): 2.7% | % Inhibition at 10 μM (ROCK2): −5.8% | % Inhibition at 10 μM (EPHA8): 2.9% | % Inhibition at 10 μM (MST3): 11.7% | % Inhibition at 10 μM (CSK): 0.9% | % Inhibition at 10 μM (EPHA5): 12.7% | % Inhibition at 10 μM (MAP2K5_Cascade): −2.3% | % Inhibition at 10 μM (PKCι): −4.3%

CC(C)(C)Cc1[nH]nc2c1[C@](C)(c1ccccc1)C1=C(CC(C)(C)CC1=O)N2 [BRD3731]
% Inhibition 10 μM (FGFR4(V550L); 10 μM): 2.9% | % Inhibition 10 μM (NEK1; 10 μM): −0.1% | % Inhibition 10 μM (MAP3K4_Cascade; 10 μM): 12.4% | % Inhibition 10 μM (MARK4; 10 μM): 22.7% | % Inhibition 10 μM (EGFR(T790M); 10 μM): −4.0% | IC50 (CDK6/CycD3; CDK6/CycD3): > 10 µM | % Inhibition 10 μM (CDK6/CycD3; CDK6/CycD3, 10 μM): 28.3% | Fold Selectivity (CDK6/CycD3; IC50 CDK6/CycD3 / IC50 GSK3β): >370 fold | % Inhibition 10 μM (PIM1; 10 μM): 11.0% | % Inhibition 10 μM (MAP3K3_Cascade; 10 μM): 1.8% | % Inhibition 10 μM (JAK2; 10 μM): 3.0% | % Inhibition 10 μM (MSK1; 10 μM): 7.4% | % Inhibition 10 μM (RET(Y791F); 10 μM): 9.5% | % Inhibition 10 μM (KIT(V654A); 10 μM): −1.9% | % Inhibition 10 μM (MINK; 10 μM): 2.2% | % Inhibition 10 μM (PIK3CA/PIK3R1; 10 μM): 42.5% | % Inhibition 10 μM (FGFR1; 10 μM): 2.3% | % Inhibition 10 μM (MAPKAPK3; 10 μM): 6.0% | % Inhibition 10 μM (KDR; 10 μM): 7.1% | % Inhibition 10 μM (TXK; 10 μM): 1.3% | % Inhibition 10 μM (CaMK4; 10 μM): 12.4% | % Inhibition 10 μM (NuaK1; 10 μM): −0.9% | % Inhibition 10 μM (IKKβ; 10 μM): 0.2% | % Inhibition 10 μM (RSK3; 10 μM): 35.5% | % Inhibition 10 μM (PKACγ; 10 μM): 6.5% | % Inhibition 10 μM (MAP2K1_Cascade; 10 μM): 3.1% | % Inhibition 10 μM (MSK2; 10 μM): 12.6% | % Inhibition 10 μM (DYRK3; 10 μM): 16.0% | % Inhibition 10 μM (DDR2; 10 μM): 7.9% | % Inhibition 10 μM (CaMK1δ; 10 μM): 16.7% | % Inhibition 10 μM (TYK2; 10 μM): 4.6% | IC50 (CDK5/p25; CDK5/p25): 8.9 µM | % Inhibition 10 μM (CDK5/p25; CDK5/p25, 10 μM): 48.3% | Fold Selectivity (CDK5/p25; IC50 CDK5/p25 / IC50 GSK3β): 331.0 fold | % Inhibition 10 μM (PKCη; 10 μM): −5.8% | % Inhibition 10 μM (MELK; 10 μM): 39.2% | % Inhibition 10 μM (BMX; 10 μM): −3.8% | % Inhibition 10 μM (ROCK2; 10 μM): −0.5% | % Inhibition 10 μM (EPHA8; 10 μM): −1.9% | % Inhibition 10 μM (MST3; 10 μM): 7.4% | % Inhibition 10 μM (CSK; 10 μM): 1.9% | % Inhibition 10 μM (EPHA5; 10 μM): −5.5% | % Inhibition 10 μM (MAP2K5_Cascade; 10 μM): 6.1% | % Inhibition 10 μM (PKCι; 10 μM): 2.5%
